Assay results published in ChEMBL document CHEMBL4699511, “Cedrol, a Sesquiterpene Alcohol, Enhances the Anticancer Efficacy of Temozolomide in Attenuating Drug Resistance via Regulation of the DNA Damage Response and MGMT Expression” (J Nat Prod, 2020).
Calls of active or inactive are those of the source. The rule behind the calls is not given here.

Experiments:
[1] = tested on: DBTRG-05MG; assay: Synergistic cytotoxicity against human DBTRG-05MG cells assessed as combination index at 134.9 uM after 48 hrs in presence of 515.1 uM TMZ by MTT assay; format: functional
[2] = tested on: DBTRG-05MG; assay: Induction of DNA damage in human DBTRG-05MG cells assessed as H2A.X phosphorylation at ser139 residues at 112.4 uM after 48 hrs by Western blot analysis (reference value: 1); format: functional
[3] = tested on: DBTRG-05MG; assay: Induction of cell cycle arrest in human DBTRG-05MG cells assessed as accumulation at S phase at 112.4 uM after 6 hrs in presence of TMZ by propidium iodide staining based flow cytometric analysis (reference value: 22.76 +/- 1.56%); format: functional
[4] = Synergistic cytotoxicity against rat CTX TNA2 cells assessed as synergistic effect index at 89.9 uM after 48 hrs in presence of 515.1 uM TMZ by MTT assay; format: cell-based; conditions: ctx tna2, 48 h
[5] = tested on: RG2; assay: Induction of cell cycle arrest in rat RG2 cells assessed as p21 expression at 112.4 uM after 48 hrs in presence of TMZ by Western blot analysis (reference value: 1); format: functional
[6] = tested on: DBTRG-05MG; assay: Synergistic cytotoxicity against human DBTRG-05MG cells assessed as combination index at 89.9 uM after 48 hrs in presence of 412.1 uM TMZ by MTT assay; format: functional
[7] = tested on: RG2; assay: Induction of apoptosis in rat RG2 cells assessed as phosphorylated caspace-9 expression at 112.4 uM after 48 hrs by Western blot analysis (reference value: 1); format: functional
[8] = tested on: RG2; assay: Induction of apoptosis in rat RG2 cells assessed as increase in chromatin condensation at 112.4 uM after 48 hrs by TUNEL assay; format: functional, cell-based
[9] = tested on: DBTRG-05MG; assay: Synergistic cytotoxicity against human DBTRG-05MG cells assessed as synergistic effect index at 134.9 uM after 48 hrs in presence of 103 uM TMZ by MTT assay; format: functional
[10] = tested on: DBTRG-05MG; assay: Induction of apoptosis in human DBTRG-05MG cells assessed as Bcl2 expression at 112.4 uM after 48 hrs by Western blot analysis (reference value: 1); format: functional
[11] = tested on: DBTRG-05MG; assay: Inhibition of ERK phosphorylation at Tyr204 residues in human DBTRG-05MG cells at 112.4uM after 48 hrs by Western blot analysis (reference value: 1); format: cell-based
[12] = tested on: RG2; assay: Induction of cell cycle arrest in rat RG2 cells assessed as accumulation at G0/G1 phase at 112.4 uM after 12 hrs by propidium iodide staining based flow cytometric analysis (reference value: 57.81 +/- 1.9%); format: functional
[13] = tested on: RG2; assay: Synergistic cytotoxicity against rat RG2 cells assessed as combination index at 89.9 uM after 48 hrs in presence of 103 uM TMZ by MTT assay; format: functional
[14] = Effect on ERK expression in rat RG2 cells at 112.4uM after 48 hrs by Western blot analysis (reference value: 1); format: functional
[15] = tested on: DBTRG-05MG; assay: Induction of cell cycle arrest in human DBTRG-05MG cells assessed as accumulation at S phase at 112.4 uM after 24 hrs in presence of TMZ by propidium iodide staining based flow cytometric analysis (reference value: 22.76 +/- 1.56%); format: functional
[16] = tested on: DBTRG-05MG; assay: Induction of apoptosis in human DBTRG-05MG cells assessed as increase in DNA fragmentation at 112.4 uM after 48 hrs by TUNEL assay; format: functional, cell-based
[17] = tested on: RG2; assay: Induction of cell cycle arrest in rat RG2 cells assessed as CDK2 expression at 112.4uM after 48 hrs in presence of TMZ by Western blot analysis (reference value: 1); format: functional
[18] = Effect on p38 expression in human DBTRG-05MG cells at 112.4uM after 48 hrs by Western blot analysis (reference value: 1); format: functional
[19] = tested on: DBTRG-05MG; assay: Induction of cell cycle arrest in human DBTRG-05MG cells assessed as accumulation at G0/G1 phase at 112.4 uM after 24 hrs by propidium iodide staining based flow cytometric analysis (reference value: 47.16 +/- 1.55%); format: functional
[20] = Synergistic cytotoxicity against rat CTX TNA2 cells assessed as combination index at 134.9 uM after 48 hrs in presence of 206 uM TMZ by MTT assay; format: cell-based; conditions: ctx tna2, 48 h
[21] = tested on: RG2; assay: Induction of cell cycle arrest in rat RG2 cells assessed as accumulation at G2/M phase at 112.4 uM after 12 hrs by propidium iodide staining based flow cytometric analysis (reference value: 20.04 +/- 0.55%); format: functional
[22] = tested on: RG2; assay: Induction of cell cycle arrest in rat RG2 cells assessed as CyclinB1 expression at 112.4 uM after 48 hrs by Western blot analysis (reference value: 1); format: functional
[23] = tested on: DBTRG-05MG; assay: Induction of cell cycle arrest in human DBTRG-05MG cells assessed as accumulation at S phase at 112.4 uM after 24 hrs by propidium iodide staining based flow cytometric analysis (reference value: 22.76 +/- 1.56%); format: functional
[24] = tested on: RG2; assay: Induction of apoptosis in rat RG2 cells assessed as cleaved PARP expression at 112.4 uM after 48 hrs in presence of TMZ by Western blot analysis (reference value: 1); format: functional
[25] = Inhibition of TMZ-induced drug resistance in human DBTRG-05MG cells assessed as MGMT expression at 112.4 uM after 48 hrs by Western blot analysis (reference value: 1.3); format: functional
[26] = tested on: RG2; assay: Induction of cell cycle arrest in rat RG2 cells assessed as CDK4 expression at 206 uM after 48 hrs by Western blot analysis (reference value: 1); format: functional
[27] = molecular target: MAP kinase p38 (Homo sapiens) (UniProt O15264+Q15759+Q16539+P53778); assay: Inhibition of p38 phosphorylation at Tyr182 residues in human DBTRG-05MG cells at 206 uM after 48 hrs by Western blot analysis (reference value: 1); format: cell-based
[28] = tested on: DBTRG-05MG; assay: Induction of cell cycle arrest in human DBTRG-05MG cells assessed as CDK2 expression at 206 uM after 48 hrs by Western blot analysis (reference value: 1); format: functional
[29] = tested on: DBTRG-05MG; assay: Induction of cell cycle arrest in human DBTRG-05MG cells assessed as accumulation at G0/G1 phase at 206 uM after 6 hrs by propidium iodide staining based flow cytometric analysis (reference value: 47.16 +/- 1.55%); format: functional
[30] = tested on: DBTRG-05MG; assay: Induction of cell cycle arrest in human DBTRG-05MG cells assessed as accumulation at S phase at 206 uM after 6 hrs by propidium iodide staining based flow cytometric analysis (reference value: 22.76 +/- 1.56%); format: functional
[31] = tested on: RG2; assay: Induction of cell cycle arrest in rat RG2 cells assessed as accumulation at G2/M phase at 206 uM after 24 hrs by propidium iodide staining based flow cytometric analysis (reference value: 20.04 +/- 0.55%); format: functional
[32] = tested on: DBTRG-05MG; assay: Induction of cell cycle arrest in human DBTRG-05MG cells assessed as accumulation at G2/M phase at 206 uM after 48 hrs by propidium iodide staining based flow cytometric analysis (reference value: 30.08 +/- 0.1%); format: functional
[33] = tested on: RG2; assay: Induction of DNA damage in rat RG2 cells assessed as ATM phosphorylation at ser1981 residues at 206 uM after 48 hrs by Western blot analysis (reference value: 1); format: functional

For `C[C@@H]1CC[C@H]2C(C)(C)[C@H]3C[C@@]12CC[C@@]3(C)O` [CEDROL], the CI [1] was 0.68, the “fold change (FC)” value [2] was 0.9 and the Activity [3] was 18.29%. The Activity_index [4] was 0.68, the “fold change (FC)” value [5] was 2.5 and the CI [6] was 0.8. The “fold change (FC)” value [7] was 0.6, the Activity [8] was “Active” and the Activity_index [9] was 0.86. For the same compound, the “fold change (FC)” value [10] was 1.3, the fold change (FC) [11] was 0.9 and the Activity [12] was 64.98%. The CI [13] was 0.88, the “fold change (FC)” value [14] was 1.1 and the Activity [15] was 14.17%. For the same compound, the Activity [16] was “Active”, the “fold change (FC)” value [17] was 0.4 and the “fold change (FC)” value [18] was 1.1. For the same compound, the Activity [19] was 57.59%, the CI [20] was 1.13 and the Activity [21] was 18.1%. The “fold change (FC)” value [22] was 0.5, the Activity [23] was 16.03% and the “fold change (FC)” value [24] was 1.6. For the same compound, the “fold change (FC)” value [25] was 0.8.
In the case of `Cn1nnc2c(C(N)=O)ncn2c1=O` [TEMOZOLOMIDE], the “fold change (FC)” value [26] is reported as 0.6, the fold change (FC) [27] is reported as 1.2 and the “fold change (FC)” value [28] is reported as 0.8. It also gave an Activity [29] of 40.56%, an Activity [30] of 24.76% and an Activity [31] of 31.81%. For the same compound, the Activity [32] was 53.64% and the “fold change (FC)” value [33] was 0.9.
